Results: ChEMBL document CHEMBL6127132, “Design, Synthesis, and Biological Evaluation of Novel Diaminopyrimidine Macrocycles as Fourth Generation Reversible EGFR Inhibitors That Overcome Clinical Resistance to Osimertinib Mediated by C797S Mutation” (J Med Chem, 2024)

Experiments:
[1] = molecular target: Epidermal growth factor receptor (Mus musculus) (UniProt Q01279); assay: Inhibition of EGFR phosphorylation in mouse BaF3 cells harboring EGFR L858R/T790M/C797S mutant preincubated for 2 hrs followed by EGF stimulation and measured after 15 mins by Western blot analysis; assay type: cell-based; details: dose 1-1000 nM, time 135.0 min
[2] = AUC (0 to t) in male SPF Sprague-Dawley rat at 10 mg/kg, po measured after 24 hrs by LC-MS/MS analysis; assay type: ADME, organism-based; details: in vivo
[3] = Half-life in male SPF Sprague-Dawley rat at 2 mg/kg, iv measured after 24 hrs by LC-MS/MS analysis; assay type: ADME, organism-based; details: in vivo
[4] = Toxicity in female BALB/c nu/nu mouse implanted with mouse BaF3 cells harboring 19del/T790M/C797S mutant assessed as mortality at 20 mg/kg, po administered once daily for 9 days; assay type: organism-based; details: in vivo, 216 h, time 9 day
[5] = Half-life in male SPF Sprague-Dawley rat at 10 mg/kg, po measured after 24 hrs by LC-MS/MS analysis; assay type: ADME, organism-based; details: in vivo
[6] = MRT (0 to t) in male SPF Sprague-Dawley rat at 10 mg/kg, po measured after 24 hrs by LC-MS/MS analysis; assay type: ADME, organism-based; details: in vivo
[7] = Induction of apoptosis in mouse BaF3 cells harboring EGFR 19del/T790M/C797S mutant assessed as late apoptotic cells at 100 nM incubated for 48 hrs by Annexin V-FITC/PI staining based flow cytometric analysis (reference value: 2.29 %); assay type: functional
[8] = Induction of apoptosis in mouse BaF3 cells harboring EGFR 19del/T790M/C797S mutant assessed as early apoptotic cells at 1000 nM incubated for 48 hrs by Annexin V-FITC/PI staining based flow cytometric analysis (reference value: 0.46 %); assay type: functional
[9] = Induction of apoptosis in mouse BaF3 cells harboring EGFR 19del/T790M/C797S mutant assessed as late apoptotic cells at 30 nM incubated for 48 hrs by Annexin V-FITC/PI staining based flow cytometric analysis (reference value: 2.29 %); assay type: functional
[10] = Induction of apoptosis in mouse BaF3 cells harboring EGFR 19del/T790M/C797S mutant assessed as early apoptotic cells at 100 nM incubated for 48 hrs by Annexin V-FITC/PI staining based flow cytometric analysis (reference value: 0.46 %); assay type: functional
[11] = Cmax in male SPF Sprague-Dawley rat at 2 mg/kg, iv measured after 24 hrs by LC-MS/MS analysis; assay type: ADME, organism-based; details: in vivo
BaF3 [12] = assay: cells; details: Mus musculus, BaF3, 72 h
[13] = Induction of apoptosis in mouse BaF3 cells harboring EGFR 19del/T790M/C797S mutant assessed as early apoptotic cells at 30 nM incubated for 48 hrs by Annexin V-FITC/PI staining based flow cytometric analysis (reference value: 0.46 %); assay type: functional
[14] = Induction of apoptosis in mouse BaF3 cells harboring EGFR 19del/T790M/C797S mutant assessed as late apoptotic cells at 1000 nM incubated for 48 hrs by Annexin V-FITC/PI staining based flow cytometric analysis (reference value: 2.29 %); assay type: functional
[15] = molecular target: Epidermal growth factor receptor (Mus musculus) (UniProt Q01279); assay: Inhibition of EGFR phosphorylation in mouse BaF3 cells harboring EGFR 19del/T790M/C797S mutant preincubated for 2 hrs followed by EGF stimulation and measured after 15 mins by Western blot analysis; assay type: cell-based; details: dose 1-1000 nM, time 135.0 min
[16] = Toxicity in female BALB/c nu/nu mouse implanted with mouse BaF3 cells harboring 19del/T790M/C797S mutant assessed as body weight loss at 20 mg/kg, po administered once daily for 9 days; assay type: organism-based; details: in vivo, 216 h, time 9 day
[17] = molecular target: Epidermal growth factor receptor (Mus musculus) (UniProt Q01279); assay: Inhibition of EGFR downstream signaling in mouse BaF3 cells harboring EGFR 19del/T790M/C797S mutant assessed as reduction in phosphorylated ERK level preincubated for 2 hrs followed by EGF stimulation and measured after 15 mins by Western blot analysis; assay type: cell-based; details: dose 1-1000 nM, time 135.0 min
A-431 = assay: cells; details: Homo sapiens, A-431, 72 h
Description: Antiproliferative activity against human A-431 cells harboring wildtype EGFR assessed as inhibition of cell proliferation measured after 72 hrs by SRB assay

[18] = Cmax in male SPF Sprague-Dawley rat at 10 mg/kg, po measured after 24 hrs by LC-MS/MS analysis; assay type: ADME, organism-based; details: in vivo
BaF3 [19] = assay: cells; details: Mus musculus, BaF3, 72 h; remark: listed apart in the source
cells = details: Homo sapiens, PC9-OR, 72 h
[20] = molecular target: Epidermal growth factor receptor (Mus musculus) (UniProt Q01279); assay: Inhibition of EGFR downstream signaling in mouse BaF3 cells harboring EGFR L858R/T790M/C797S mutant assessed as reduction in phosphorylated ERK level preincubated for 2 hrs followed by EGF stimulation and measured after 15 mins by Western blot analysis; assay type: cell-based; details: dose 1-1000 nM, time 135.0 min
[21] = Clearance in male SPF Sprague-Dawley rat at 2 mg/kg, iv measured after 24 hrs by LC-MS/MS analysis; assay type: ADME, organism-based; details: in vivo
[22] = AUC (0 to infinity) in male SPF Sprague-Dawley rat at 10 mg/kg, po measured after 24 hrs by LC-MS/MS analysis; assay type: ADME, organism-based; details: in vivo
BaF3 [23] = assay: Induction of apoptosis in mouse BaF3 cells harboring EGFR 19del/T790M/C797S mutant assessed as caspase 3 cleavage incubated for 48 hrs by Western blot analysis; assay type: functional, cell-based; details: dose 30-1000 nM
[24] = Tmax in male SPF Sprague-Dawley rat at 10 mg/kg, po measured after 24 hrs by LC-MS/MS analysis; assay type: ADME, organism-based; details: in vivo
[25] = AUC (0 to infinity) in male SPF Sprague-Dawley rat at 2 mg/kg, iv measured after 24 hrs by LC-MS/MS analysis; assay type: ADME, organism-based; details: in vivo
BaF3 [26] = assay: Antitumor activity against mouse BaF3 cells harboring 19del/T790M/C797S mutant implanted in female BALB/c nu/nu mouse assessed as tumor growth inhibition at 20 mg/kg, po administered once daily for 9 days relative to control; assay type: functional; details: BaF3, 216 h, time 9 day, read-out: TGI
[27] = Induction of apoptosis in mouse BaF3 cells harboring EGFR 19del/T790M/C797S mutant assessed as early apoptotic cells at 300 nM incubated for 48 hrs by Annexin V-FITC/PI staining based flow cytometric analysis (reference value: 0.46 %); assay type: functional
[28] = Antiproliferative activity against mouse BaF3 cells assessed as inhibition of cell proliferation incubated for 72 hrs by CCK-8 assay; assay type: toxicity, cell-based
[29] = Induction of apoptosis in mouse BaF3 cells harboring EGFR 19del/T790M/C797S mutant assessed as late apoptotic cells at 300 nM incubated for 48 hrs by Annexin V-FITC/PI staining based flow cytometric analysis (reference value: 2.29 %); assay type: functional
[30] = Tmax in male SPF Sprague-Dawley rat at 2 mg/kg, iv measured after 24 hrs by LC-MS/MS analysis; assay type: ADME, organism-based; details: in vivo
[31] = MRT (0 to t) in male SPF Sprague-Dawley rat at 2 mg/kg, iv measured after 24 hrs by LC-MS/MS analysis; assay type: ADME, organism-based; details: in vivo
[32] = Oral bioavailability in male SPF Sprague-Dawley rat at 10 mg/kg measured after 24 hrs by LC-MS/MS analysis; assay type: ADME, organism-based; details: in vivo
[33] = AUC (0 to t) in male SPF Sprague-Dawley rat at 2 mg/kg, iv measured after 24 hrs by LC-MS/MS analysis; assay type: ADME, organism-based; details: in vivo

Epidermal growth factor receptor (Mus musculus), sequence (Q01279 whole entry): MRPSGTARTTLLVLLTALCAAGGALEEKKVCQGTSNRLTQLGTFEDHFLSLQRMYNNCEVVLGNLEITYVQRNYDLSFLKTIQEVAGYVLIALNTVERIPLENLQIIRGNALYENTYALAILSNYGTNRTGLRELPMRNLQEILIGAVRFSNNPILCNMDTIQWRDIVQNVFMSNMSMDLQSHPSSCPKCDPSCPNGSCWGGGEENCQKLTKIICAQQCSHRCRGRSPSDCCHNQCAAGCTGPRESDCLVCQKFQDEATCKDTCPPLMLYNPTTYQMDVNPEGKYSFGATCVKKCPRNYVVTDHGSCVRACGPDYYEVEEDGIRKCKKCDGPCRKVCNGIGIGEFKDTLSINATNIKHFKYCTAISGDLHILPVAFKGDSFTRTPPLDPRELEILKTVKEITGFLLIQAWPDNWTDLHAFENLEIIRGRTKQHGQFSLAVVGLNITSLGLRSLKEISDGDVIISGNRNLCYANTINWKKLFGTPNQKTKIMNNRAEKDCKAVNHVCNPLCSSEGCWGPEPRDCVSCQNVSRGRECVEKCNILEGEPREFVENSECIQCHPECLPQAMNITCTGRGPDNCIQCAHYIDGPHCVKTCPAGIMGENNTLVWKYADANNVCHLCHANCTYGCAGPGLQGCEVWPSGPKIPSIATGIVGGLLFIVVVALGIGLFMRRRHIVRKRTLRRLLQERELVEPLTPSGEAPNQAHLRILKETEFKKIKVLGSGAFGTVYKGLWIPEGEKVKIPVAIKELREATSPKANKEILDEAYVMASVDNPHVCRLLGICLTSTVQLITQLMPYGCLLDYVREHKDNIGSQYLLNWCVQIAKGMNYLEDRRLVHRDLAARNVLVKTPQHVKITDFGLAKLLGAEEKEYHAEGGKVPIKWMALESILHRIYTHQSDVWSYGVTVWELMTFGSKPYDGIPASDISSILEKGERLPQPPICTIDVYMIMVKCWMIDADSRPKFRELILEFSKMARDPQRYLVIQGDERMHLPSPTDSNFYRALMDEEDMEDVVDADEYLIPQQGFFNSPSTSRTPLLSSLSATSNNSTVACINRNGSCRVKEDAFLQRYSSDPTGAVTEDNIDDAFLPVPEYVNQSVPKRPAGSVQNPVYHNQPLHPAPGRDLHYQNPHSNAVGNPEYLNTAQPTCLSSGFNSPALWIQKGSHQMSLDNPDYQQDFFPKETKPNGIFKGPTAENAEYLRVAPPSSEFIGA

SMILES: COc1cc(N2CCOCC2)c2cc1Nc1ncc(C)c(n1)Nc1ccc(cc1P(C)(C)=O)OCCCn1cc-2cn1
- inhibition [1]: Dose-Dependent Effect
- AUC(0-t) at 24 h [2]: 18000 ng·h/mL
- half-life [3]: 5.54 h
- Activity [4]: Non-Toxic
- half-life [5]: 4.32 h
- MRT last at 24 h [6]: 5.86 h
- Activity [7]: 3.44%
- Activity [8]: 71.63%
- Activity [9]: 1.64%
- Activity [10]: 5.98%
- Cmax [11]: 2150 ng/mL
- IC50 (BaF3 [12]): 41 nM
- Activity [13]: 2.26%
- Activity [14]: 17.31%
- inhibition [15]: Dose-Dependent Effect
- Activity [16]: Non-Toxic
- inhibition [17]: Dose-Dependent Effect
- IC50 (A-431): 246 nM
- Cmax [18]: 1820 ng/mL
- IC50 (BaF3 [19]): 52 nM
- IC50 (cells): 56 nM
- inhibition [20]: Dose-Dependent Effect
- clearance [21]: 4.27 mL/min/kg
- AUC(0-inf) [22]: 18500 ng·h/mL
- Activity (BaF3 [23]): Dose-Dependent Effect
- Tmax [24]: 1.67 h
- AUC(0-inf) [25]: 7900 ng·h/mL
- inhibition in vivo at 20 mg/kg (BaF3 [26]): 65.4%
- Activity [27]: 34.23%
- IC50 at 72 h [28]: 2100 nM
- Activity [29]: 16.34%
- Tmax [30]: 4.98 min
- MRT last at 24 h [31]: 3.89 h
- bioavailability [32]: 47%
- AUC(0-t) at 24 h [33]: 7630 ng·h/mL
